Tests used:
[1] = molecular target: T1, purified recombinant CDC25C enzyme (MBP-CDC25C protein) (Homo sapiens, UniProt P30307); experiment: Phosphatase activity of the purified recombinant CDC25C enzyme (OMFP dephosphorylation, fluorescence); format: biochemical; details: OMFP 500 μM, 4 hours at 30° C., three independent experiments; nested upper bounds; read-out: IC50 for the phosphatase activity of the purified recombinant CDC25-C enzyme
T1 construct: made in house
T1 sequence (P30307 1-473): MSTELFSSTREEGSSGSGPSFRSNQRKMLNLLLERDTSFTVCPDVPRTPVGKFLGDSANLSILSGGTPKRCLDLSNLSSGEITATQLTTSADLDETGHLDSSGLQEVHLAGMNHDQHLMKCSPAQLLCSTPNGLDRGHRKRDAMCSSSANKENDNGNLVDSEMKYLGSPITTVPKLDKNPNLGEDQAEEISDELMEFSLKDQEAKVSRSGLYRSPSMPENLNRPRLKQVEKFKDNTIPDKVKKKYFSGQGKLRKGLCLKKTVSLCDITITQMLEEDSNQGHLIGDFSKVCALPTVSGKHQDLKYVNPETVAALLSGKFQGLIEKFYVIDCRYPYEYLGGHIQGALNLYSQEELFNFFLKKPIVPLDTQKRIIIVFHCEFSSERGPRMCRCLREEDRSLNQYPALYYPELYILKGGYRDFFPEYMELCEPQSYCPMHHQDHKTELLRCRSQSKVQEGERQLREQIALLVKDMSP
Experimental: i) Determination of the Phosphatase Activity of the Purified Recombinant CDC25C Enzyme:
The phosphatase activity of the MBP-CDC25C protein is evaluated through its dephosphorylation of 3-O-methylfluorescein-phosphate (OMFP) to form 3-O-methylfluorescein (OMF), determining the fluorescence of the reaction product at 475 nm. This assay can be used to identify inhibitors of the recombinant CDC25 enzyme. The preparation of the MBP-CDC25C fusion protein is described in the PCT patent application published under the number WO 01/44467.
The reaction is performed in 384-well plates in a final volume of 50 μl. The MBP-CDC25C protein (prepared as described hereinabove) is stored in the following elution buffer: 20 mM Tris-HCl pH 7.4; 250 mM NaCl; 1 mM EDTA; 1 mM dithiothreitol (DTT); 10 mM maltose. It is diluted to a concentration of 60 μM in the following reaction buffer: 50 mM Tris-HCl pH 8.2; 50 mM NaCl; 1 mM DTT; 20% glycerol. The background noise is determined using with the buffer without adding the enzyme. The products are tested at decreasing concentrations from 40 μM. The reaction is initiated by the addition of OMFP solution to a final concentration of 500 μM (prepared immediately before use from a 12.5 mM stock solution in 100% DMSO (Sigma #M2629)). After 4 hours at 30° C. in a disposable 384-well plate, the fluorescence measured at OD 475 nm is read on a Victor^2 plate reader (EGG-Wallac). The concentration that produces 50% inhibition of the enzyme reaction is calculated from three independent experiments. Only the values that fall within the linear part of the sigmoid curve are used for the linear regression analysis.

[2] = system: MIA PaCa-2 (human pancreatic carcinoma cells); experiment: Anti-proliferative activity, MIA PaCa-2 cells (WST1 colorimetric test); format: cell-based; details: MIA PaCa-2, 96 h, 96 hours treatment, up to 10 μM, nested upper bounds, read-out: IC50 for proliferation of the MIA PaCa-2 cell lines
Experimental: (§1) ii) Characterisation of Anti-Proliferative Activity:
(§2) By way of an example, the effect of treating two human cell lines MIA PaCa-2 and DU 145 with the compounds of the examples described hereinbefore will be studied. The cell lines DU 145 (human prostate carcinoma cells) and MIA PaCa-2 (human pancreatic carcinoma cells) were obtained from the American Tissue Culture Collection (Rockville, Md., USA). A 96-well plate was inoculated on day 0 with cells in 80 μl of Dulbecco's modified Eagle's medium (Gibco-Brl, Cergy-Pontoise, France) with 10% heat-inactivated foetal calf serum (Gibco-Brl, Cergy-Pontoise, France), 50,000 units/l of penicillin and 50 mg/l of streptomycin (Gibco-Brl, Cergy-Pontoise, France) and 2 mM of glutamine (Gibco-Brl, Cergy-Pontoise, France). The cells were treated on day 1 for 96 hours with increasing concentrations of each test compound up to 10 μM. At the end of this period, cell proliferation is quantified by means of a colorimetric test based on cleavage of the tetrazolium salt WST1 by the mitochondrial dehydrogenases in the viable cells, resulting in formation of formazan (Boehringer Mannheim, Meylan, France). These tests are performed in duplicate with 8 determinations per concentration tested. For each test compound, the values within the linear part of the sigmoid curve were subjected to linear regression analysis and used to estimate the IC50 inhibitory concentration. The products are solubilised in dimethylsulfoxide (DMSO) at a concentration of 10^−2 M and used in culture with a final DMSO concentration of 0.1%.

[3] = system: DU 145 (human prostate carcinoma cells); experiment: Anti-proliferative activity, DU 145 cells (WST1 colorimetric test); format: cell-based; details: DU-145, 96 h, 96 hours treatment, up to 10 μM, nested upper bounds, read-out: IC50 for proliferation of the DU 145 cell lines
Experimental: as §1, §2

Row | IC50 [1] [µM] | IC50 [2] [µM] | IC50 [3] [µM] | melting point [°C] | SMILES
1 | ≤ 1 | ≤ 10 | ≤ 10 | 241 to 243 | O=c1c(NCCNc2cc(N3CCCC3)nc(N3CCCC3)n2)c(Nc2ccc(F)cc2)c1=O [Example 31, 3-({2-[(2,6-dipyrrolidin-1-ylpyrimidin-4-yl)amino]ethyl}amino)-4-[(4-fluorophenyl)amino]cyclobut-3-ene-1,2-dione]
2 | ≤ 1 | ≤ 10 | ≤ 10 | > 250 | N#Cc1ccc(Nc2c(NCCNc3cc(N4CCCC4)nc(N4CCCC4)n3)c(=O)c2=O)cc1 [Example 33, 3-({2-[(2,6-dipyrrolidin-1-ylpyrimidin-4-yl)amino]ethyl}amino)-4-[(4-cyanophenyl)amino]cyclobut-3-ene-1,2-dione]
